Read-outs that look alike come from different tables or passages of the source.
Key:
Assay type in all cases: physicochemical
[1] = Examination of solubilizing agent: solubility of SUN N8075 (Test example 1); details: for solubility at 30 min: phosphate-buffered saline with solubilizing agent, 24 °C, kinetic from dmso stock, read-out: Concentration (solubility of SUN N8075)
Method: 8 mg/mL aqueous solution of SUN N8075 was prepared. On the other hand, for each solubilizing agent, an aqueous solution having approximately 0.4% of solubilizing agent was prepared.
10 mL of SUN N8075 aqueous solution and 10 mL of solution of each solubilizing agent were mixed to give Mixture A, and Mixture A was filtered through a filter of 0.22 μm.
6.24 g of sodium dihydrogen phosphate and 16.4 g of sodium chloride were weighed and water was added to make the volume precisely 1,000 mL. To this solution, 1 mol/L sodium hydroxide test solution was added dropwise and the pH value was adjusted to 7.4, which was named Mixture B.
Mixture of each 2.5 mL of Mixture A and Mixture B was provided as a test solution (in each test solution, the concentration of SUN N8075 corresponds to 2 mg/mL, and the concentration of solubilizing agent corresponds to 0.1%).
As for a solubilizing agent of which degree of improving solubility of SUN N8075 was high, tests with concentrations of the added solubilizing agent varied were additionally executed in accordance with the method as described above.

[2] = Reduction in surface activity in SUN N8075 aqueous solution (Test example 7); set-up: key: A: Much less foaming than Control; B: Clearly less foaming than Control; Slightly less foaming than Control; D: Comparable to Control; E: More foaming than Control
Method: Into each test compound solution which was prepared in advance to achieve each adding concentration shown in the Table, SUN N8075 was added and dissolved so that the concentration thereof was 5 mg/mL, and the pH value was adjusted to 3 to 4 as appropriate by hydrochloric acid to prepare a sample solution.
Each 10 mL of sample solution was put into a 10-mL stoppered test tube, and shaken 30 strokes vertically by hand and allowed to stand upright, and under room diffused light, appearance of sample solution after shaking, foaming property (foaming quantity), defoaming time, post standing observation (after standing for 3 days or more) were evaluated.
As a control, an aqueous solution containing no test substance but containing 5 mg/mL of SUN N8075 was examined in a similar manner.

[3] = Examination of properties of SUN N8075 itself; details: pH around neutrality

Compound: Cc1cc(OC[C@@H](O)CN2CCN(c3ccc(Cc4ccc(F)cc4)cc3)CC2)c(C)c(C)c1N [SUN N8075, (2S)-1-(4-amino-2,3,5-trimethylphenoxy)-3-{4-[4-(4-fluorobenzyl)phenyl]-1-piperazinyl}-2-propanol dimethane sulfonate]
- Appearance of solution ([1]; Glycerin 0.1%, pH 6.8): colorless and clear
- Appearance of solution ([1]; HCO-60 0.1%, pH 6.8): colorless and clear
- Appearance of solution ([1]; HCO-60 0.2%, pH 6.9): colorless and clear
- Appearance of solution ([1]; HCO-60 0.5%, pH 6.8): colorless and clear
- Appearance of solution ([1]; Human serum albumin 0.1%, pH 6.8): colorless and clear
- Appearance of solution ([1]; Macrogol 4000 0.1%, pH 6.8): colorless and clear
- Appearance of solution ([1]; Mannitol 0.1%, pH 6.8): colorless and clear
- Appearance of solution ([1]; Nicotinic amide 0.1%, pH 6.8): colorless and clear
- Appearance of solution ([1]; No additive, pH 6.8): colorless and clear
- Appearance of solution ([1]; Propylene glycol 0.1%, pH 6.9): colorless and clear
- Appearance of solution ([1]; Tween80 0.1%, pH 6.8): clouded
- Appearance of solution ([1]; Tween80 0.2%, pH 6.8): clouded
- Appearance of solution ([1]; Tween80 0.5%, pH 6.8): clouded
- Appearance of solution ([1]; Tween80 1.0%, pH 6.8): colorless and clear
- solubility at 30 min ([1]; pH 6.5, aqueous with cosolvent or surfactant or cyclodextrin, β-Cyclodextrin derivative 10%, pH 6.5): 4850 µg/mL
- solubility at 30 min ([1]; pH 6.8, aqueous with cosolvent or surfactant or cyclodextrin, HCO-60 0.5%, pH 6.8): 395 µg/mL
- solubility at 30 min ([1]; pH 6.8, aqueous with cosolvent or surfactant or cyclodextrin, HCO-60 (polyoxyethylene hardened castor oil) 0.1%, pH 6.8): 184 µg/mL
- solubility at 30 min ([1]; pH 6.8, aqueous with cosolvent or surfactant or cyclodextrin, Human serum albumin 0.1%, pH 6.8): 14 µg/mL
- solubility at 30 min ([1]; pH 6.8, aqueous with cosolvent or surfactant or cyclodextrin, Tween80 0.1%, pH 6.8): 745 µg/mL
- solubility at 30 min ([1]; pH 6.8, aqueous with cosolvent or surfactant or cyclodextrin, Tween80 0.2%, pH 6.8): 1830 µg/mL
- solubility at 30 min ([1]; pH 6.8, aqueous with cosolvent or surfactant or cyclodextrin, Tween80 0.5%, pH 6.8): 1790 µg/mL
- solubility at 30 min ([1]; pH 6.8, aqueous with cosolvent or surfactant or cyclodextrin, Tween80 1.0%, pH 6.8): 1820 µg/mL
- solubility at 30 min ([1]; pH 6.8, aqueous with cosolvent or surfactant or cyclodextrin, β-Cyclodextrin derivative 0.5%, pH 6.8): 98 µg/mL
- solubility at 30 min ([1]; pH 6.8, aqueous with cosolvent or surfactant or cyclodextrin, β-Cyclodextrin derivative 1.0%, pH 6.8): 240 µg/mL
- solubility at 30 min ([1]; pH 6.9, aqueous with cosolvent or surfactant or cyclodextrin, HCO-60 0.2%, pH 6.9): 334 µg/mL
- solubility at 30 min ([1]; pH 6.9, aqueous with cosolvent or surfactant or cyclodextrin, β-Cyclodextrin 0.1%, pH 6.9): 26 µg/mL
- solubility at 30 min ([1]; pH 6.9, aqueous with cosolvent or surfactant or cyclodextrin, β-Cyclodextrin derivative 5.0%, pH 6.9): 1420 µg/mL
- Appearance of solution ([1]; β-Cyclodextrin 0.1%, pH 6.9): colorless and clear
- Appearance of solution ([1]; β-Cyclodextrin derivative 0.5%, pH 6.8): colorless and clear
- Appearance of solution ([1]; β-Cyclodextrin derivative 1.0%, pH 6.8): colorless and clear
- Appearance of solution ([1]; β-Cyclodextrin derivative 5.0%, pH 6.9): colorless and clear
- Appearance of solution ([1]; β-Cyclodextrin derivative 10%, pH 6.5): colorless and clear
- Appearance of solution ([1]; β-Cyclodextrin derivative (β-cyclodextrin sulfobutyl ether sodium salt) 0.1%, pH 6.8): colorless and clear
- Defoaming time ([2]; Chlorobutanol 0.10%): D
- Defoaming time ([2]; Sodium chloride 25 mM): D
- Solubility [3]: very low

Reference: US20100004267A1, “LIQUID PREPARATION” (ASUBIO PHARMA CO., LTD., priority 2006, published 2010)
